Measurements reported in patent US12209079B2 (GENERAL INCORPORATED ASSOCIATION PHARMA VALLEY PROJECT …, priority 2017, dated 2025).
Counter-ions that a name gives are not always drawn.

Key:
IDO in A431 cells = molecular target: T1, IDO in A431 cells (Homo sapiens, UniProt P14902); assay: IDO cell-based assay, kynurenine production in IFN-γ stimulated A431 cells; conditions: A-431, 24 h; final concentration of the compound 10 μM; rate relative to culture without compound
T1 construct: endogenous in cells; host or cells: A431 cells, IFN-γ stimulated
Procedure: A431 cells (3.0×10^5 cells/mL) suspended in a culture medium for assay (D-MEM; Wako 040-30095, 5% FBS, 50 units/mL penicillin, 50 μg/mL streptomycin, and 2 mM L-glutamine) were inoculated at 100 μL/well to a transparent 96-well flat-bottomed plate and cultured at 37° C. for 24 hours in 5% CO2. The culture medium was removed from the cells thus cultured. A tryptophan-containing culture medium (culture medium for assay supplemented with 178 μM L-tryptophan) was added at 80 μL/well, and further, a compound solution was added at 10 μL/well. The cells were preincubated for 1 hour. Then, the whole amount was brought to 100 μL/well by the addition of 10 μL/well of IFN-γ diluted into 100 ng/mL with a tryptophan-containing culture medium, and the cells were cultured for 24 hours. After the culture, absorbance was measured at 460 nm using SpectraMax MSSK (Molecular Devices, LLC) (background measurement). After the measurement, a kynurenine quantification reagent (prepared with 7% [v/v] aqueous trichloroacetic acid solution and a solution of 2% [w/v] p-dimethylbenzaldehyde in acetic acid at 2:5 [v/v]) was added at 200 μL/well and reacted for 5 minutes, followed by the measurement of absorbance at 460 nm again. The rate of kynurenine production was calculated according to the following expression. Rate of kynurenine production (%) for each compound in the case of using A431 cells={(Absorbance at 460 nm in the tryptophan-containing culture medium comprising the A431 cells and the solution of the compound of the present invention−Absorbance of the background)/(Absorbance at 460 nm in the tryptophan-containing culture medium without the addition of the compound solution−Absorbance of the background)}×100 TDO Cell-Based Assay Protocol

[1] = molecular target: rhIDO (recombinant human IDO) (Homo sapiens, UniProt P14902); assay: Enzyme assay using rhIDO (rate of kynurenine production); type: biochemical; conditions: 2 h; final concentration of the compound 10 μM; rate relative to reaction without compound; read-out: rhIDO-mediated kynurenine production
Procedure: Enzyme Assay Protocol Using rhIDO (Recombinant Human IDO)
4 μL of a compound solution was added to 176 μL of a rhIDO reaction solution (0.5 M potassium phosphate buffer (20 μL), 0.2 M ascorbic acid (20 μL), 0.5 mM methylene blue (4 μL), 10 mg/mL catalase (2 μL), H2O (128 μL), and rhIDO (2 μL)). The mixture was pipetted and preincubated at 37° C. for 10 minutes. Then, the whole amount was brought to 200 μL by the addition of 20 μL of a 2 mM aqueous tryptophan solution, and the mixture was pipetted again and reacted at 37° C. for 120 minutes. After the reaction, the enzymatic reaction was terminated by the addition of 40 μL of a 30% [v/v] aqueous trichloroacetic acid solution to the reaction solution. The mixture was well stirred by pipetting and heated at 50° C. for 15 minutes so that N-formylkynurenine was converted to kynurenine. The reaction solution thus heated was centrifuged (15,000 rpm, 5 min, 24° C.), and 150 μL of the supernatant was transferred to a transparent 96-well flat-bottomed plate, followed by the measurement of absorbance at 490 nm using SpectraMax MSSK (background measurement). After the measurement, a solution of 2% [w/v] p-dimethylbenzaldehyde in acetic acid was added at 150 μL/well and reacted for 5 minutes, followed by the measurement of absorbance at 490 nm again. The rate of kynurenine production was calculated according to the following expression. Rate of kynurenine production (%) for each compound in the case of using rhIDO={(Absorbance at 490 nm in the tryptophan-containing aqueous solution comprising rhIDO and the compound of the present invention−Absorbance of the background)/(Absorbance at 490 nm in the tryptophan-containing aqueous solution without the addition of the compound solution−Absorbance of the background)}×100 Enzyme Assay Protocol Using rhTDO (Recombinant Human TDO)

TDO in A172 cells = molecular target: T2, TDO in A172 cells (Homo sapiens, UniProt P48775); assay: TDO cell-based assay, kynurenine production in A172 cells; conditions: A 172; final concentration of the compound 10 μM; rate relative to culture without compound
T2 construct: endogenous in cells; host or cells: A172 cells
Procedure: A172 cells (3.0×10^5 cells/mL) suspended in a culture medium for assay (PRMI-1640; Wako 186-02155, 5% FBS, 50 units/mL penicillin, and 50 μg/mL streptomycin) were inoculated at 100 μL/well to a transparent 96-well flat-bottomed plate and cultured at 37° C. for 24 hours in 5% CO2. The culture medium was removed from the cells thus cultured. A culture medium for assay was added at 80 μL/well, and further, a compound solution was added at 10 μL/well. The cells were preincubated for 1 hour. Then, the whole amount was brought to 100 μL/well by the addition of 10 μL/well of a 5 mM aqueous tryptophan solution (final concentration of L-tryptophan: 524 μM), and the cells were cultured for 24 hours. After the culture, absorbance was measured at 460 nm using SpectraMax MSSK (Molecular Devices, LLC) (background measurement). After the measurement, a kynurenine quantification reagent (prepared with 7% [v/v] aqueous trichloroacetic acid solution and a solution of 2% [w/v] p-dimethylbenzaldehyde in acetic acid at 2:5 [v/v]) was added at 200 μL/well and reacted for 5 minutes, followed by the measurement of absorbance at 460 nm again. The rate of kynurenine production was calculated according to the following expression. Rate of kynurenine production (%) for each compound in the case of using A172 cells={(Absorbance at 460 nm in the tryptophan-containing culture medium comprising the A172 cells and the solution of the compound of the present invention−Absorbance of the background)/(Absorbance at 460 nm in the tryptophan-containing culture medium without the addition of the compound solution−Absorbance of the background)}×100

[2] = molecular target: rhTDO (recombinant human TDO) (Homo sapiens, UniProt P48775); assay: Enzyme assay using rhTDO (rate of kynurenine production); type: biochemical; conditions: 2 h; final concentration of the compound 10 μM; rate relative to reaction without compound; read-out: rhTDO-mediated kynurenine production
Procedure: 4 μL of a compound solution was added to 176 μL of a rhTDO reaction solution (0.5 M potassium phosphate buffer (20 μL), 0.2 M ascorbic acid (20 μL), 0.5 mM methylene blue (4 μL), 10 mg/mL catalase (2 μL), H2O (128 μL), and rhTDO (2 μL)). The mixture was pipetted and preincubated at 37° C. for 10 minutes. Then, the whole amount was brought to 200 μL by the addition of 20 μL of a 20 mM aqueous tryptophan solution, and the mixture was pipetted again and reacted at 37° C. for 120 minutes. After the reaction, the enzymatic reaction was terminated by the addition of 40 μL of a 30% [v/v] aqueous trichloroacetic acid solution to the reaction solution. The mixture was well stirred by pipetting and heated at 50° C. for 15 minutes so that N-formylkynurenine was converted to kynurenine. The reaction solution thus heated was centrifuged (15,000 rpm, 5 min, 24° C.), and 150 μL of the supernatant was transferred to a transparent 96-well flat-bottomed plate, followed by the measurement of absorbance at 490 nm using SpectraMax M5 SK (background measurement). After the measurement, a solution of 2% [w/v] p-dimethylbenzaldehyde in acetic acid was added at 150 μL/well and reacted for 5 minutes, followed by the measurement of absorbance at 490 nm again. The rate of kynurenine production was calculated according to the following expression. Rate of kynurenine production (%) for each compound in the case of using rhTDO={(Absorbance at 490 nm in the tryptophan-containing aqueous solution comprising rhTDO and the compound of the present invention−Absorbance of the background)/(Absorbance at 490 nm in the tryptophan-containing aqueous solution without the addition of the compound solution−Absorbance of the background)}×100 IDO Cell-Based Assay Protocol

T1 sequence (P14902 whole entry): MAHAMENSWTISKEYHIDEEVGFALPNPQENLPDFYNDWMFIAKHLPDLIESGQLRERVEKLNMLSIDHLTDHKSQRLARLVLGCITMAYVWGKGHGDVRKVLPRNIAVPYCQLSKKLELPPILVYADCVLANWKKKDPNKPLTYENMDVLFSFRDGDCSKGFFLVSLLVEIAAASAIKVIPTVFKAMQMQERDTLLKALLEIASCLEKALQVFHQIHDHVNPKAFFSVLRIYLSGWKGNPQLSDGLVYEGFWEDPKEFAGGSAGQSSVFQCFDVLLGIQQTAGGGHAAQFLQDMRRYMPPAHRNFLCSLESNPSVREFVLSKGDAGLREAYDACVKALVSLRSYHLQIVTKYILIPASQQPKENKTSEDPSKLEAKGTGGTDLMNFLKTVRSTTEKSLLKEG
rhIDO (recombinant human IDO), sequence (P14902 whole entry): as above
T2 sequence (P48775 whole entry): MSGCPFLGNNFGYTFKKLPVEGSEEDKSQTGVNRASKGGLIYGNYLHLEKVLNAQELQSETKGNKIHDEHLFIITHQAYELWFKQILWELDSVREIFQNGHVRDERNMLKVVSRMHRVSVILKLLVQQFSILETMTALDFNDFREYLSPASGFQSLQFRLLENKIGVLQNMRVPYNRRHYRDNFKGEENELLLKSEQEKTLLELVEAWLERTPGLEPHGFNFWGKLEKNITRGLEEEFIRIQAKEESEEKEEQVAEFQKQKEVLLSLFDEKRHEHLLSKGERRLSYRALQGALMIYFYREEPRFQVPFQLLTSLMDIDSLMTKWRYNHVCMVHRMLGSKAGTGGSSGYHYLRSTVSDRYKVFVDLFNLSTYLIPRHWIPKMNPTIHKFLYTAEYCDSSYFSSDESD
rhTDO (recombinant human TDO), sequence (P48775 whole entry): as above

| SMILES | remaining activity at 10 µM (IDO in A431 cells) [%] | remaining activity at 10 µM [1] [%] | remaining activity at 10 µM (TDO in A172 cells) [%] | remaining activity at 10 µM [2] [%] |
| --- | --- | --- | --- | --- |
| N=C(N)SCc1ccc2ccccc2c1CSC(=N)N [Compound 3, naphthalene-1,2-diylbis(methylene) dicarbamimidothioate dihydrobromide] | 7 | 6 | 78 | 30 |
| CC(C)(C)c1ccc(CSC(=N)N)c(CSC(=N)N)c1 [Compound 4, (4-(tert-butyl)-1,2-phenylene)bis(methylene) dicarbamimidothioate dihydrobromide] | 68 | 64 | 102 | 56 |
| N=C(N)SCc1nc2ccccc2nc1CSC(=N)N [Compound 5, quinoxaline-2,3-dilylbis(methylene) dicarbamimidothioate dihydrobromide] | 85 | 69 | 113 | 84 |
| N=C(N)SCc1c(F)c(F)c(F)c(F)c1CSC(=N)N [Compound 6, (perfluoro-1,2-phenylene)bis(methylene) dicarbamimidothioate dihydrobromide] | 75 | 15 | 74 | 9 |
| C/N=C(\NC)SCc1ccccc1CS/C(=N/C)NC [Compound 8, 1,2-phenylenebis(methylene) (E,E)-bis(N,N′-dimethylcarbamimidothioate) dihydrodhloride] | 10 | 77 | 20 | 52 |
| c1ccc(CCN2CN=C(SCc3ccccc3CSC3=NCN(CCc4ccccc4)CN3)NC2)cc1 [Compound 9, 1,2-bis(((5-phenethyl-1,4,5,6-tetrahydro-1,3,5-triazin-2-yl)thio)methyl)benzene] | 10 | 30 | 0 | 36 |
| CNC(=N)SCc1ccccc1CSC(=N)NC [Compound 11, 1,2-phenylenebis(methylene) bis(methylcarbamimidothioate) dihydrochloride] | 6 | 51 | 19 | 58 |
| Cc1ccc(CSC(=N)N)c(CSC(=N)N)c1 [Compound 12, (4-methyl-1,2-phenylene)bis(methylene) dicarbamimidothioate dihydrobromide] | 13 | 20 | 0 | 10 |
| N=C(N)SCc1cccc(F)c1CSC(=N)N [Compound 13, (3-fluoro-1,2-phenylene)bis(methylene) dicarbamimidothioate dihydrobromide] | 32 | 15 | 42 | 9 |
| c1ccc(CN2CN=C(SCc3ccccc3CSC3=NCN(Cc4ccccc4)CN3)NC2)cc1 [Compound 14, 1,2-bis(((5-benzyl-1,4,5,6-tetrahydro-1,3,5-triazin-2-yl)thio)methyl)benzene] | 7 | 52 | 4 | 31 |

Continued, values first:

| remaining activity at 10 µM (IDO in A431 cells) [%] | remaining activity at 10 µM [1] [%] | remaining activity at 10 µM (TDO in A172 cells) [%] | remaining activity at 10 µM [2] [%] | SMILES |
| --- | --- | --- | --- | --- |
| 76 | 66 | 74 | 68 | c1cnc(SCc2ccccc2CSc2ncccn2)nc1 [Compound 16, 1,2-bis((pyrimidin-2-ylthio)methyl)benzene] |
| 8 | 30 | 0 | 25 | Clc1ccc(CCN2CN=C(SCc3ccccc3CSC3=NCN(CCc4ccc(Cl)cc4)CN3)NC2)cc1 [Compound 17, 1,2-bis(((5-(4-chlorophenethyl)-1,4,5,6-tetrahydro-1,3,5-triazin-2-yl)thio)methyl)benzene] |
| 7 | 23 | -1 | 27 | Clc1ccc(Cl)c(CN2CN=C(SCc3ccccc3CSC3=NCN(Cc4cc(Cl)ccc4Cl)CN3)NC2)c1 [Compound 18, 1,2-bis(((5-(2,5-dichlorobenzyl)-1,4,5,6-tetrahydro-1,3,5-triazin-2-yl)thio)methyl)benzene] |
| 5 | 43 | 1 | 46 | Brc1cccc(CCN2CN=C(SCc3ccccc3CSC3=NCN(CCc4cccc(Br)c4)CN3)NC2)c1 [Compound 19, 1,2-bis(((5-(3-bromophenethyl)-1,4,5,6-tetrahydro-1,3,5-triazin-2-yl)thio)methyl)benzene] |
